Earlier results as cited in patent US20240016441A1 (priority 2023, published 2024).
Read-outs that look alike come from different tables or passages of the source.

How the values were obtained:
[1] = 84 mEq/L at 5 ml*kg^-1*h^-1 for 3.5 hours, single anesthetized patient
[2] = in vivo
[3] = test system: BDNF; conditions: male athletes, p<0.05
[4] = test system: dopaminergic neurons; conditions: related to a glyoxalase pathway
[5] = for plasma L-lactate to brain metabolism: occipital-parietal lobe
[6] = test system: dopaminergic neurons; conditions: neurons treated with L-lactate
[7] = test system: glabellar reflex; conditions: successful levodopa treatment, patients with Parkinson's disease
[8] = traumatic brain injury patients and healthy controls

For `C[C@H](O)C(=O)[O-].[Na+]` [sodium L-lactate], the vital signs [1] is given as “without any significant change in vital signs” and the adverse effects [2] is given as “without any adverse effects”.
For `CC(O)C(=O)[O-].[Na+]` (racemic) [sodium DL-lactate], the BDNF blood concentration [3] is given as “increase”.
For `C[C@@H](O)C(=O)O` [D-lactate], the “survival of dopaminergic neurons” value [4] is given as “increase survival of dopaminergic neurons”.
In the case of `C[C@H](O)C(=O)O` [L-lactate], the “plasma L-lactate to brain metabolism” value ([5]; basal plasma L-lactate concentrations of ~1.0 mmol/L) is listed as 10%, the “plasma L-lactate to brain metabolism” value ([5]; high physiologic plasma concentrations) is listed as no more than 60% and the “effect on dopaminergic neurons” value [6] is listed as “apoptosis of dopaminergic neurons”.
In the case of `N[C@@H](Cc1ccc(O)c(O)c1)C(=O)O` [levodopa], the glabellar reflex [7] is given as “reversal of the glabellar reflex”.
In the case of `[13CH3]C(O)C(=O)[O-].[Na+]` [sodium [3-^13C] L-lactate], the complications [8] is given as “without serious complications”, the “peak L-lactate blood concentration” value [8] is given as 10.6 mg/dL and the adverse effects ([5]; 350 mmol/L, priming dose then continuous infusion for ~120 min) is given as “without any adverse effects”.
